Data: US4782135A (priority 1983, dated 1988)
Where two headings read alike, the source gives them in different places.

Legend:
coxsackie (COX) A21 = type: cell-based, coxsackie virus
equine rhinovirus (ER) = type: cell-based
[1] = system: herpes simplex virus (HSV) type 1; type: cell-based, herpes simplex virus type 1
[2] = system: herpes simplex virus (HSV) type 2; type: cell-based, herpes simplex virus type 2
[3] = system: L1210 mouse leukemia cells; assay: L1210 tube dilution assay; type: cell-based; details: for ID50: concentration to inhibit L1210 cell growth by 50 percent; for ID90: concentration to inhibit L1210 cell growth by 90 percent
From the text: The L1210 tube dilution assay is described in detail in a publication by L. H. Li, et al., Cancer Research 39: 4816 (1979).

P388 leukemia = assay: In vivo P388 mouse leukemia test; parameters: species or system mice
From the text: The P388 mouse leukemia test is described in detail in a publication by G. L. Neil, et. al., Cancer Treatment Reports 63, 1971-1978 (1979).
^a Schedule of Injection: daily intraperitoneal injection for 9 days
following tumor implantation.
^b Median survival time of control animals = 10.3 days.
^a Schedule of injection: Intraperitoneal injection on Day 1, 5, and
9, following Tumor inoculation.
^b Median survival time of Control (no drug) animals: 10.2 days.

[4] = for Solubility in organic solvents: methanol, ethanol, isopropanol, dioxane, ethyl acetate, and chloroform
[5] = ML cells infected with coxsackie A21
[6] = ML cells infected with equine rhinovirus
[7] = 63 μg/kg/injection, daily i.p. for 9 days
[8] = 63 μg/kg/injection, daily i.p. for 9 days, control 10.3 days
[9] = 125 μg/kg/injection, daily i.p. for 9 days
[10] = 125 μg/kg/injection, daily i.p. for 9 days, control 10.3 days
[11] = 250 μg/kg/injection, daily i.p. for 9 days
[12] = 250 μg/kg/injection, daily i.p. for 9 days, control 10.3 days
[13] = 250 μg/kg/injection, i.p. on Day 1, 5 and 9
[14] = 250 μg/kg/injection, i.p. on Day 1, 5 and 9, control 10.2 days
[15] = 500 μg/kg/injection, daily i.p. for 9 days
[16] = 500 μg/kg/injection, i.p. on Day 1, 5 and 9
[17] = 500 μg/kg/injection, i.p. on Day 1, 5 and 9, control 10.2 days
[18] = 1000 μg/kg/injection, daily i.p. for 9 days
[19] = 1000 μg/kg/injection, i.p. on Day 1, 5 and 9
[20] = 1000 μg/kg/injection, i.p. on Day 1, 5 and 9, control 10.2 days
[21] = 2000 μg/kg/injection, daily i.p. for 9 days
[22] = 2000 μg/kg/injection, i.p. on Day 1, 5 and 9
[23] = 4000 μg/kg/injection, i.p. on Day 1, 5 and 9
[24] = 8000 μg/kg/injection, i.p. on Day 1, 5 and 9
[25] = uninfected ML cells, 50% cell destruction, overnight incubation
[26] = uninfected Vero cells, 50% cell destruction, overnight incubation
[27] = 30 μg/kg/injection, i.p. on Day 1, 5 and 9
[28] = 60 μg/kg/injection, i.p. on Day 1, 5 and 9
[29] = 120 μg/kg/injection, i.p. on Day 1, 5 and 9

didemnin A
Ratio (cytotoxic concentration ÷ antiviral concentration), cox virus (coxsackie (COX) A21; ML cells): 17
ID50 Antiviral-cox virus (coxsackie (COX) A21; [5]): 1.5 µg/mL
Ratio (cytotoxic concentration ÷ antiviral concentration), ER virus (equine rhinovirus (ER); ML cells): 17
ID50 Antiviral-ER virus (equine rhinovirus (ER); [6]): 1.5 µg/mL
Ratio (cytotoxic concentration ÷ antiviral concentration), HSV-1 virus ([1]; Vero cells): 17
ID50 Antiviral-HSV-1 virus ([1]; Vero cells infected with HSV-1): 3 µg/mL
Ratio (cytotoxic concentration ÷ antiviral concentration), HSV-2 virus ([2]; Vero cells): 33
ID50 Antiviral-HSV-2 virus ([2]; Vero cells infected with HSV-2): 1.5 µg/mL
ID50 [3]: 0.019 µg/mL
ID90 [3]: 0.058 µg/mL
Inhibition of growth of L1210 mouse leukemia cells in vitro (words) [3]: inhibit the growth
T/C (P388 leukemia; [7]): 104%
Weight Change (P388 leukemia; [7]): +0.9 g
Median Survival Time (P388 leukemia; [8]): 10.7 days
T/C (P388 leukemia; [9]): 115%
Weight Change (P388 leukemia; [9]): +1.4 g
Median Survival Time (P388 leukemia; [10]): 11.9 days
T/C (P388 leukemia; [11]): 119%
Weight Change (P388 leukemia; [11]): +1.0 g
Median Survival Time (P388 leukemia; [12]): 12.2 days
T/C (P388 leukemia; [13]): 109%
Weight Change (P388 leukemia; [13]): +1.7 g
Median Survival Time (P388 leukemia; [14]): 11.1 days
T/C (P388 leukemia; [15]): 129%
Weight Change (P388 leukemia; [15]): +0.9 g
Median Survival Time (P388 leukemia; 500 μg/kg/injection, daily i.p. for 9 days, control 10.3 days): 13.2 days
T/C (P388 leukemia; [16]): 118%
Weight Change (P388 leukemia; [16]): +1.6 g
Median Survival Time (P388 leukemia; [17]): 12.1 days
T/C (P388 leukemia; [18]): 158%
Weight Change (P388 leukemia; [18]): +0.3 g
Median Survival Time (P388 leukemia; 1000 μg/kg/injection, daily i.p. for 9 days, control 10.3 days): 16.2 days
T/C (P388 leukemia; [19]): 118%
Weight Change (P388 leukemia; [19]): +1.8 g
Median Survival Time (P388 leukemia; [20]): 12.1 days
T/C (P388 leukemia; [21]): 155%
Weight Change (P388 leukemia; [21]): -0.2 g
Median Survival Time (P388 leukemia; 2000 μg/kg/injection, daily i.p. for 9 days, control 10.3 days): 16.0 days
T/C (P388 leukemia; [22]): 121%
Weight Change (P388 leukemia; [22]): +2.0 g
Median Survival Time (P388 leukemia; 2000 μg/kg/injection, i.p. on Day 1, 5 and 9, control 10.2 days): 12.4 days
T/C (P388 leukemia; [23]): 130%
Weight Change (P388 leukemia; [23]): +1.3 g
Median Survival Time (P388 leukemia; 4000 μg/kg/injection, i.p. on Day 1, 5 and 9, control 10.2 days): 13.3 days
T/C (P388 leukemia; [24]): 140%
Weight Change (P388 leukemia; [24]): +0.8 g
Median Survival Time (P388 leukemia; 8000 μg/kg/injection, i.p. on Day 1, 5 and 9, control 10.2 days): 14.3 days
Activity in vivo against P388 leukemia in mice (P388 leukemia): active
ID50 Toxicity-ML cells (ML cells; [25]): 25 µg/mL
ID50 Toxicity-Vero cells (Vero cells; [26]): 50 µg/mL
Solubility in organic solvents [4]: soluble
Solubility in toluene [4]: sparingly soluble
Solubility in water [4]: insoluble

didemnin B
ID50 Antiviral-cox virus (coxsackie (COX) A21; [5]): < 1.5 µg/mL
ID50 Antiviral-ER virus (equine rhinovirus (ER); [6]): < 1.5 µg/mL
Ratio (cytotoxic concentration ÷ antiviral concentration), HSV-1 virus ([1]; Vero cells): 8
ID50 Antiviral-HSV-1 virus ([1]; Vero cells infected with HSV-1): 1.5 µg/mL
Ratio (cytotoxic concentration ÷ antiviral concentration), HSV-2 virus ([2]; Vero cells): 8
ID50 Antiviral-HSV-2 virus ([2]; Vero cells infected with HSV-2): 1.5 µg/mL
ID50 [3]: 0.0018 µg/mL
ID90 [3]: 0.0059 µg/mL
Inhibition of growth of L1210 mouse leukemia cells in vitro (words) [3]: inhibit the growth
Inhibition of growth of L1210 mouse leukemia cells in vitro (words) ([3]; listed as didemnin B): inhibit
T/C (P388 leukemia; [27]): 125%
Weight Change (P388 leukemia; [27]): +1.6 g
Median Survival Time (P388 leukemia; 30 μg/kg/injection, i.p. on Day 1, 5 and 9, control 10.2 days): 12.8 days
T/C (P388 leukemia; [28]): 140%
Weight Change (P388 leukemia; [28]): +1.2 g
Median Survival Time (P388 leukemia; 60 μg/kg/injection, i.p. on Day 1, 5 and 9, control 10.2 days): 14.3 days
T/C (P388 leukemia; [7]): 143%
Weight Change (P388 leukemia; [7]): +0.1 g
Median Survival Time (P388 leukemia; [8]): 14.8 days
T/C (P388 leukemia; [29]): 147%
Weight Change (P388 leukemia; [29]): +0.2 g
Median Survival Time (P388 leukemia; 120 μg/kg/injection, i.p. on Day 1, 5 and 9, control 10.2 days): 15.0 days
T/C (P388 leukemia; [9]): 136%
Weight Change (P388 leukemia; [9]): -0.6 g
Median Survival Time (P388 leukemia; [10]): 14.0 days
T/C (P388 leukemia; [11]): 138%
Weight Change (P388 leukemia; [11]): -2.2 g
Median Survival Time (P388 leukemia; [12]): 14.2 days
T/C (P388 leukemia; [13]): 157%
Weight Change (P388 leukemia; [13]): -0.5 g
Median Survival Time (P388 leukemia; [14]): 16.0 days
Weight Change (P388 leukemia; [15]): -3.4 g
T/C (P388 leukemia; [16]): 176%
Weight Change (P388 leukemia; [16]): -1.7 g
Median Survival Time (P388 leukemia; [17]): 18.0 days
T/C (P388 leukemia; [19]): 199%
Weight Change (P388 leukemia; [19]): -3.8 g
Median Survival Time (P388 leukemia; [20]): 20.3 days
Activity in vivo against P388 leukemia in mice (P388 leukemia): active
ID50 Toxicity-ML cells (ML cells; [25]): < 1.5 µg/mL
ID50 Toxicity-Vero cells (Vero cells; [26]): 12 µg/mL
Solubility in organic solvents [4]: soluble
Solubility in toluene [4]: sparingly soluble
Solubility in water [4]: insoluble

didemnin C
ID50 Antiviral-cox virus (coxsackie (COX) A21): < 1.5
Ratio (cytotoxic concentration ÷ antiviral concentration), cox virus (coxsackie (COX) A21): > 4
ID50 Antiviral-ER virus (equine rhinovirus (ER)): < 1.5
Ratio (cytotoxic concentration ÷ antiviral concentration), ER virus (equine rhinovirus (ER)): > 4
ID50 Antiviral-HSV-1 virus [1]: < 1.5
Ratio (cytotoxic concentration ÷ antiviral concentration), HSV-1 virus [1]: > 33
ID50 Antiviral-HSV-2 virus [2]: < 1.5
Ratio (cytotoxic concentration ÷ antiviral concentration), HSV-2 virus [2]: > 33
ID50 Toxicity-ML cells (ML cells): 6
ID50 Toxicity-Vero cells (Vero cells): 50
